Blank lines part the entries; values can stand above or below the compound they belong to. Where no end group is shown, it is not given here. [ ]: non-standard residue; d: D form. Dopa = N[C@@H](Cc1ccc(O)c(O)c1)C(=O)O
Experiments:
[1] = Silver reduction / silver deposition assay; conditions: silver nitrate added to pre-formed assemblies; TEM, HR-SEM or E-SEM
Procedure: Silver reduction assay was performed with pre-prepared Fmoc-DOPA-DOPA hydrogels at a concentration of 5 mg/mL (8.35 mM). 50 μL of 13.2 mM silver nitrate were added to 500 μL hydrogel aliquots by gentle pipetting, resulting in 1.2 mM final concentration of silver nitrate. This solution was incubated at room temperature for several days. At different time points, 10 μL aliquots were taken for TEM analysis and negative staining was not applied. To examine silver reduction using UV-vis spectroscopy, silver nitrate was added to a 5 mg/mL hydrogel pre-prepared as described above and 150 μL aliquots of Fmoc-DOPA-DOPA hydrogel with or without silver nitrate were pipetted into a 96-well UV-Star UV transparent plate (Greiner BioOne, Frickenhausen, Germany) Spectra were collected after 5 days using a Biotek Synergy HT plate reader over the range of 300-700 nm and compared to blank samples of silver nitrate only, or of the peptide only.
Peptide stock solution was diluted to a final concentration of 5 mg/ml in double distilled water. Then metal salt (AgNO3) was added to the sample and the samples were analyzed by TEM or HR-SEM. AgNO3 concentration was determined according to the final catechol concentration in the peptide, with a constant ratio of [AgNO3]/[Catechol]=0.0723.
Silver deposition was done by preparing 15 mM peptide solutions and removing residual peptide monomers. This was done by centrifugation at 12,000 RPM for 15 min, discarding the supernatant and resuspention in ultra-pure water. This procedure was repeated once more. Samples for electron microscopy were taken as control and the solution was centrifuged at 12,000 RPM for 15 min and resuspended in an aqueous solution of 2.17 mM AgNO3 for 15 min Finally, the solution was centrifuged at 9000 RPM for 10 min and resuspended in water. Samples for electron microscopy were taken again.

[2] = AFM force mapping adhesion measurements with colloidal probe (Embodiment 2); format: physicochemical; conditions: for mean adhesion force from force map histogram: tip velocity 1000 nm/s, compressive force 20 nN
Procedure: In an alternative embodiment, AFM analysis was performed using an Asylum MFP-1D AFM instrument (Asylum Research, Santa Barbara, Calif., USA).
The AFM measurment was performed by emploting force mapping while simultaneously providing nanoscale topographical and mechanical information about the hydrogel. Force mapping involves generating individual force curves at discrete points on a material, which are then used to calculate stiffness and height values.
(§1) After overnight incubation, 10 μL of each sample were deposited on a glass slide and dried at room temperature. Force measurements of the samples were conducted using a SiO2 colloidal probe (tip velocity 1000 nm/s, compressive force 20 nN). To investigate the glass surface area morphology after peeling, 30 μL of freshly prepared Fmoc-DOPA-DOPA-Lys solutions (12.5 mg/mL, prepared in DMSO or ethanol as described above) were deposited between two microscope glass slides. This construct was incubated overnight at room temperature under 100 mg weight Finally, the upper glass slide was peeled off and the contact area of either slide was imaged using an Ultrasharp AFM probe (NSC21/Ti-Pt, MikroMasch) operated in tapping mode.

[3] = Thermal perturbation of assemblies (temperature-dependent CD, FTIR, TEM); format: physicochemical; conditions: 0.15 mM in water, stepwise 18° C. to 90° C. and back
Procedure: CD spectra were collected as described above except that the spectra were obtained throughout temperature variation done in a stepwise fashion up and then down. […] (in the following steps: 25° C., 37° C., 50° C., 70° C., 90° C., 70° C., 50° C., 37° C., 25° C.). The sample was allowed to equilibrate for 10 min and the temperature was monitored by a thermocouple in the cuvette holder block. At the end of the measurments, the cuvette content was sampled for TEM and FTIR analysis as described above. As control, TEM and FTIR samples were taken from an aliquot of the same solution which was not subjected to temperature variations.

[4] = Rheological measurements of in situ-formed hydrogel; format: physicochemical; conditions: 5 mg/mL
Procedure: Rheological measurements for in situ-formed Fmoc-DOPA-DOPA hydrogel were performed using an AR-G2 rheometer (TA Instruments, New Castle, Del., USA). Time-sweep oscillatory tests in 20 mm parallel plate geometry were conducted at 0.7% strain and 1 Hz frequency on 200 μL of fresh solution (resulting in a gap size of about 0.6 mm), 1 min after its preparation. In order to determine the linear viscoelastic region oscillatory strain (0.01-100%) and frequency sweep (0.01-100 Hz) tests were conducted 45 min after diluting the stock solution with Milli-Q water. All rheology tests were done in triplicates and averaged.

[5] = Macroscopic adhesion of two glass slides and peeling; format: physicochemical; conditions: prepared in ethanol or DMSO
Procedure: as §1

Compound: 3,4-dihydroxyphenyl-L-alanine-(3,4-dihydroxyphenyl-L-alanine) [DOPA-DOPA]
reduction of ionic silver / silver deposition on assemblies [1]: formation of silver particles

mean adhesion force from force map histogram ([2]; 1 mg/ml in 1% ethanol, one day of assembly): 31±10.6 nN
Compound: O=C(N[C@@H](Cc1ccc(O)c(O)c1)C(=O)O)OCC1c2ccccc2-c2ccccc21 [Fmoc-DOPA]

Compound: D[Dopa]NK[Dopa]
reduction of ionic silver / silver deposition on assemblies [1]: possess the ability to reduce ionic silver
stability of the ultrastructure to elevated temperature [3]: ultrastructure is impaired by elevated temperatures

Compound: Fmoc-DOPA-DOPA
mean adhesion force from force map histogram ([2]; 5 mg/ml in 5% ethanol): 36±11 nN
storage modulus at 25° C. or 37° C. relative to hydrogels formed at 4° C. [4]: approximately 40 fold
storage modulus (G′) versus loss modulus (G″) in the linear region ([4]; 25° C.): more than one order of magnitude larger than the loss modulus
reduction of ionic silver / silver deposition on assemblies [1]: seamless coating of the peptide assemblies was clearly observed

adhesion force (force map) ([2]; 1.25 wt% (12.5 mg/mL) prepared in 12.5% DMSO and water): > 300 nN
adhesion force (force map) ([2]; 1.25 wt% (12.5 mg/mL) prepared in 12.5% ethanol and water): more than 214 nN
Compound: Fmoc-DOPA-DOPA-Lys
macroscopic adhesive properties [5]: capable of gluing together two glass slides
